From article PMC9896953, “Structural basis of unisite catalysis of bacterial F0F1-ATPase” (PNAS Nexus, 2022)

Experiments:
[1] = molecular target: T1, wt-F0F1 (wild-type F0F1-ATPase / ATP synthase) (Bacillus sp. PS3, UniProt P07677+P07678+P09219); assay: cryo-EM structure; assay type: binding
T1 construct: gene atpD; holo complex α3β3γ1ε1δ1a1b2c10 from pTR19-ASDS, expressed in E. coli DK8, DDM-solubilised, Ni-NTA purified, nucleotide-depleted; with ATP synthase gamma chain; ATP synthase epsilon chain; ATP synthase subunit delta; ATP synthase subunit a; ATP synthase subunit b; ATP synthase subunit c

[2] = molecular target: T2, ΔεCT-F0F1 (F0F1 with C-terminal-truncated ε subunit) (Bacillus sp. PS3, UniProt P07677+P09219); assay: cryo-EM structure; assay type: binding; details: unisite conditions (substoichiometric ATP with PEP / pyruvate kinase), 25 °C, pH 8.0; catalytic site of closed βTP
T2 construct: gene atpD; holo complex, ε lacks residues 83-133; derived from pTR19-ASDS, expressed in E. coli, DDM-solubilised, Ni-NTA purified, nucleotide-depleted; PS3 origin is judgement; with ATP synthase gamma chain; ATP synthase epsilon chain; ATP synthase subunit delta; ATP synthase subunit a; ATP synthase subunit b; ATP synthase subunit c

`Nc1ncnc2c1ncn2[C@@H]1O[C@H](COP(=O)(O)OP(=O)(O)OP(O)(O)=S)[C@@H](O)[C@H]1O` [ATPγS] was tested, and the cryo-EM structure ([1]; 4 mM ATPγS, ε-down form: catalytic βE and βTP and noncatalytic α sites, also bound in the retracted ε subunit (second site), ε-up form: βE) was ““open in βE with ATPγS,” “closed in βTP with ATPγS,” and “closed in βDP with ADP”.

`Nc1ncnc2c1ncn2[C@@H]1O[C@H](COP(=O)(O)OP(=O)(O)O)[C@@H](O)[C@H]1O` [ADP] was tested, and the cryo-EM structure ([1]; sample exposed to 4 mM ATPγS, catalytic βDP (ε down), βTP and βDP (ε up)) was ““closed in βTP with ADP,” and “open in βDP with ADP”” and the cryo-EM structure [2] was “revealed a nucleotide density due to ADP at the catalytic site in βTP”.
